According to ChEMBL document CHEMBL4665762, “Conosiligins A-D, Ring-Rearranged Tremulane Sesquiterpenoids from Conocybe siliginea” (J Nat Prod, 2020):

Assay: Inhibition of Con A-induced BALB/c mouse T cell proliferation after 48 hrs by [3H]-thymidine incorporation assay
Type: functional, tissue-based

Structure (SMILES): C[C@@H]1C(=O)C2=C(COC2=O)[C@@H]2C[C@@](C)(CO)C[C@H]12
- IC50: 12.3 µM

Structure (SMILES): C[C@@]12CO[C@]3(C1)c1coc(=O)cc1O[C@H](CO)[C@H]3C2
- IC50: 6.6 µM
